US6350737B1, “Platinum complex, its preparation and therapeutic application” (Pliva-Lachema, A.S., priority 1998, dated 2002)

Assays:
[1] = system: lines P 815 (mastocytoma) and L 1210 (lymphocyte leucaernia line); experiment: MTT test, mice tumor lines (line not stated for the carboplatin value); type: cell-based
Description: (§1) Cytostatic activity of compounds of the present invention has been tested in vitro on tumor lines. The MTT test was chosen for screening the effectivity of the respective compounds. The test is based on reaction of a tetrazolium salt with respirating mitochondria of living cells. The resulted insoluble formazan is solubilized and its amount is determined on a microplate reader. This method is being used as a standard one for evaluation of cytostatic effect of pharmaceutically active compounds (Tim Mosmann, Rapid colorimetric assay for cellular growth and survival, Application to proliferation and cytotoxicity assays, Journal of Immunological Methods, 65 (1983), 55-63). Inhibition constant (IC50) represents such a concentration of a substance which causes 50% supression of growth of a cell culture. This constant has been determined from a graph of dependence of MTT value (mitochondrial activity of cells) on the concentration of tested substance. A GraphPad Prism programme was used for determination of the constant from the measured values, whereby Boltzman sigmoid was used for constructing a curve from single experimental points. Chosen cell lines are standard lines used for routine screening of cytostatic effect of pharmacologically active compounds.
(§2) Within this example, lines P 815 (mastocytoma) and L 1210 (lymphocyte leucaernia line) were tested.

[2] = system: lymfoblastic leucaemia line CEMt; experiment: MTT test, human tumor line CEMt; type: cell-based; conditions: read-out: Inhibition constant IC50
Description: (§3) The MTT test was chosen for screening the effectivity of the respective compounds. The test is based on reaction of a tetrazolium salt with respirating mitochondria of living cells. The resulted insoluble formazan is solubilized and its amount is determined on a microplate reader. […] Inhibition constant (IC50) represents such a concentration of a substance which causes 50% supression of growth of a cell culture. This constant has been determined from a graph of dependence of MTT value (mitochondrial activity of cells) on the concentration of tested substance. A GraphPad Prism programme was used for determination of the constant from the measured values, whereby Boltzman sigmoid was used for constructing a curve from single experimental points.
Comparation experiments were performed on lymfoblastic leucaemia line CEMt. The MTT test was used for evaluation of cytotoxic effect.
Vitality of cells was determined by a standard spectrophotometric MTT test based on reduction of 3-(4,5-dimethylthiazol-2-yl)-2,5-diphenyltetrazolium bromide by vital cells under formation of a formazane.

[3] = system: Ocular melanoma VUP; experiment: Cytotoxicity on ocular melanoma VUP; type: cell-based, human
Description: as §3

[4] = system: P 815 (mastocytoma); experiment: MTT test, mice tumor line P 815; type: cell-based; conditions: P-815 line
Description: as §1, §2

[5] = system: L 1210 (lymphocyte leucaernia line); experiment: MTT test, mice tumor line L 1210; type: cell-based; conditions: L-1210 line
Description: as §1, §2

[6] = system: solid mammal adenocarcinoma MC 2111; experiment: Antitumor activity in vivo, single i.v. dose, survival; design: species or system Mice female DBA/1
Description: Mice female DBA/1 of body mass 22.9-25.8 g were used in this experiment. Tumors were developed by s.c. inoculation of 0.2 ml of a tumor homogenate diluted in 1:1 volume ratio with an isotonic glucose solution. Tested compounds were applied in a form of an isotonic water solution prepared immediately before application by dissolution of corresponding lyophilised product in water for injections and further by dilution with isotonic sodium chloride solution ad hoc according to the need, in volumes of 0.1-0.4 ml per 20 g of body mass of an animal, as apparent from the following table.

Compound	activity relative to LA-9 ([1]; IC50 comparison)	IC50 ([1]; line not specified, both in a free form or as a complex with cyclodextrin) [µM]	IC50 [2] [µM]	IC50 [3] [µM]	IC50 [4] [µM]	IC50 [5] [µM]	sensibility in comparison with Carboplatin ([3]; IC50 comparison)	Survivors (% of control) ([6]; 12 mg/kg single i.v. dose)	Optimum dosage ([6]; animals used in the tests) [mg/kg]
N.N.O=C([O-])C1(C(=O)[O-])CCC1.[Pt+2] [Carboplatin, cis-diammine-/1,1-cyclobutanedicarboxylato/platinum(II) complex]	approximately hundred times less active	105	30.4	95	–	–	–	–	–
N.N.[Cl][Pt][Cl] [Cisplatin, cis-diammine-dichloroplatinum(II) complex]	–	–	1.9	–	–	–	–	–	–
O=C1[O][Pt]2([NH][C@@H]3CCCC[C@H]3[NH]2)[O]C1=O [Oxaliplatin]	–	–	4.8	–	–	–	–	–	–
cis-(1-adamantylamine) amminedichloroplatinum (II) [LA-9]	–	–	0.36	9	1.1	1.5	approximately ten times higher sensibility	410 % of control	13 to 16
